Assay results from ChEMBL document CHEMBL2346526, “Synthesis and antiproliferative activity of C-homo-lactam derivatives of 7-deoxycholic acid” (Bioorg Med Chem Lett, 2013).

How the values were obtained:
Format in all cases: functional, cell-based
[1] = Cytotoxicity against GNE 2 cells (unknown origin) after 72 hrs by MTT assay
[2] = Cytotoxicity against human Tu 686 cells after 72 hrs by MTT assay
[3] = system: HeLa; assay: Cytotoxicity against human HeLa cells after 72 hrs by MTT assay
[4] = Cytotoxicity against human SMMC-7404 cells after 72 hrs by MTT assay
[5] = Cytotoxicity against human SPC-A cells after 72 hrs by MTT assay
[6] = Cytotoxicity against human MGC7901 cells after 72 hrs by MTT assay
[7] = Homo sapiens, HeLa, 72 h, read-out: IC50

For `CC(=O)O[C@H]1CC[C@@]2(C)[C@H](CC[C@@H]3[C@@H]2CC(=O)N[C@]2(C)[C@@H]([C@H](C)CCC(=O)O)CC[C@@H]32)C1`, the IC50 [1] was 134 µM, the IC50 [2] was 19.8 µM and the IC50 ([3]; hela) was greater than 200 µM. The IC50 [4] was 99.3 µM, the IC50 [5] was 185 µM and the IC50 [6] was 185 µM.
`CC(=O)O[C@H]1CC[C@@]2(C)[C@H](CC[C@@H]3[C@@H]2CC(=O)N[C@]2(C)[C@@H]([C@H](C)CCC(=O)N(C)C)CC[C@@H]32)C1` gave an IC50 [1] of 151 µM, an IC50 [2] of 74.5 µM and an IC50 ([3]; hela) greater than 200 µM. It also gave an IC50 [4] of 168 µM, an IC50 [5] of 130 µM and an IC50 [6] of 88.5 µM.
With `COC(=O)CC[C@@H](C)[C@H]1CC[C@H]2[C@@H]3CC[C@@H]4C[C@@H](OC(C)=O)CC[C@]4(C)[C@H]3C/C(=N\O)[C@]12C` the IC50 [1] was 17.3 µM, the IC50 [2] was 74.3 µM and the IC50 [3, 7] was 14.7 µM. For the same molecule, the IC50 [4] was 15.6 µM, the IC50 [5] was 13.5 µM and the IC50 [6] was 19.8 µM.
For `COC(=O)CC[C@@H](C)[C@H]1CC[C@H]2[C@@H]3CC[C@@H]4C[C@@H](O)CC[C@]4(C)[C@H]3CC(=O)N[C@]12C`, the IC50 [1] was 168 µM, the IC50 [2] was greater than 200 µM and the IC50 [3, 7] was 19 µM. For the same molecule, the IC50 [4] was greater than 200 µM, the IC50 [5] was greater than 200 µM and the IC50 [6] was greater than 200 µM.
`C[C@H](CCC(=O)O)[C@H]1CC[C@H]2[C@@H]3CC[C@@H]4CC(=O)CC[C@]4(C)[C@H]3CC(=O)N[C@]12C` gave an IC50 [1] greater than 200 µM, an IC50 [2] of 16.7 µM and an IC50 ([3]; hela) greater than 200 µM. For the same molecule, the IC50 [4] was greater than 200 µM, the IC50 [5] was greater than 200 µM and the IC50 [6] was greater than 200 µM.
Molecule `C[C@H](CCC(=O)O)[C@H]1CC[C@H]2[C@@H]3CC[C@@H]4C[C@@H](O)CC[C@]4(C)[C@H]3CC(=O)N[C@]12C` has an IC50 [1] of 168 µM, an IC50 [2] of 44.3 µM and an IC50 [3, 7] of 19.2 µM. For the same molecule, the IC50 [4] was greater than 200 µM, the IC50 [5] was greater than 200 µM and the IC50 [6] was greater than 200 µM.
Work on `COC(=O)CC[C@@H](C)[C@H]1CC[C@H]2[C@@H]3CC[C@@H]4C[C@@H](OC(C)=O)CC[C@]4(C)[C@H]3CC(=O)N[C@]12C` yielded an IC50 [1] greater than 200 µM, an IC50 [2] of 65.9 µM and an IC50 [3, 7] of 15.9 µM. The IC50 [4] was 62.3 µM, the IC50 [5] was greater than 200 µM and the IC50 [6] was 80.7 µM.
